From the NIST ThermoML archive (doi:10.1016/j.jct.2011.05.033)
Where “and” joins values, the source holds several entries; their conditions need not be identical. Identical values can stand only once.

Assays:
[1] = xn = mol fraction of the nth substance listed; details: 298.15 K, 101 kPa, Liquid, Vibrating tube method
[2] = excess molar enthalpy (molar enthalpy of mixing); xn = mol fraction of the nth substance listed; details: 298.15 K, 101 kPa, Liquid, Isothermal Titration Calorimeter

CCCCCCCCn1cc[n+](C)c1.O=S(=O)([N-]S(=O)(=O)C(F)(F)F)C(F)(F)F + CO
Details | excess molar enthalpy [kcal/mol] | mass density
[1], x1 = 0.0001 | – | 791.05 kg/m3
[1], x1 = 0.0218 | – | 882.47 kg/m3
[1], x1 = 0.0599 | – | 986.86 kg/m3
[1], x1 = 0.0837 | – | 1031.65 kg/m3
[1], x1 = 0.1926 | – | 1153.62 kg/m3
[1], x1 = 0.2708 | – | 1198.9 kg/m3
[1], x1 = 0.3019 | – | 1213.08 kg/m3
[1], x1 = 0.5004 | – | 1267.25 kg/m3
[1], x1 = 0.8201 | – | 1308.01 kg/m3
[1], x1 = 0.8355 | – | 1308.78 kg/m3
[1], x1 = 0.989 | – | 1319.5 kg/m3
[1], x1 = 1 | – | 1320.55 kg/m3 and 1320.38 kg/m3
[2], x2 = 0.0153 | 0.0206 | –
[2], x2 = 0.0302 | 0.0402 | –
[2], x2 = 0.0446 | 0.0586 | –
[2], x2 = 0.0586 | 0.076 | –
[2], x2 = 0.0721 | 0.0923 | –
[2], x2 = 0.0853 | 0.108 | –
[2], x2 = 0.0982 | 0.122 | –
[2], x2 = 0.1106 | 0.136 | –
[2], x2 = 0.1228 | 0.149 | –
[2], x2 = 0.1346 | 0.162 | –
[2], x2 = 0.1461 | 0.173 | –
[2], x2 = 0.1573 | 0.184 | –
[2], x2 = 0.1682 | 0.195 | –
[2], x2 = 0.1788 | 0.205 | –
[2], x2 = 0.1892 | 0.214 | –

CCCCCC[n+]1ccn(C)c1.O=S(=O)([N-]S(=O)(=O)C(F)(F)F)C(F)(F)F + CO
Details | excess molar enthalpy [kcal/mol] | mass density
[1], x1 = 0.0001 | – | 792.92 kg/m3
[1], x1 = 0.0002 | – | 792.66 kg/m3
[1], x1 = 0.0003 | – | 792.92 kg/m3
[1], x1 = 0.0711 | – | 1017.33 kg/m3
[1], x1 = 0.0868 | – | 1047.67 kg/m3
[1], x1 = 0.1772 | – | 1163.23 kg/m3
[1], x1 = 0.2176 | – | 1195.97 kg/m3
[1], x1 = 0.2695 | – | 1228.24 kg/m3
[1], x1 = 0.4991 | – | 1308.41 kg/m3
[1], x1 = 0.5488 | – | 1318.7 kg/m3
[1], x1 = 0.5851 | – | 1325.38 kg/m3
[1], x1 = 1 | – | 1371.91 kg/m3 and 1371.79 kg/m3
[2], x2 = 0.0147 | 0.0257 | –
[2], x2 = 0.029 | 0.0503 | –
[2], x2 = 0.0429 | 0.0738 | –
[2], x2 = 0.0564 | 0.0962 | –
[2], x2 = 0.0695 | 0.118 | –
[2], x2 = 0.0823 | 0.138 | –
[2], x2 = 0.0947 | 0.158 | –
[2], x2 = 0.1068 | 0.176 | –
[2], x2 = 0.1186 | 0.194 | –
[2], x2 = 0.13 | 0.211 | –
[2], x2 = 0.1412 | 0.228 | –
[2], x2 = 0.1521 | 0.243 | –
[2], x2 = 0.1627 | 0.258 | –
[2], x2 = 0.1731 | 0.272 | –
[2], x2 = 0.1832 | 0.286 | –

CCCC[n+]1ccn(C)c1.O=S(=O)([N-]S(=O)(=O)C(F)(F)F)C(F)(F)F + CO
Details | excess molar enthalpy [kcal/mol] | mass density [kg/m3]
[1], x1 = 0.0844 | – | 1054.48
[1], x1 = 0.1155 | – | 1109.91
[1], x1 = 0.1594 | – | 1168.72
[1], x1 = 0.1722 | – | 1182.69
[1], x1 = 0.264 | – | 1259.96
[1], x1 = 0.6327 | – | 1388.71
[1], x1 = 0.8245 | – | 1418.09
[1], x1 = 1 | – | 1436.29
[2], x2 = 0.0131 | 0.0218 | –
[2], x2 = 0.0258 | 0.0423 | –
[2], x2 = 0.0383 | 0.0617 | –
[2], x2 = 0.0504 | 0.08 | –
[2], x2 = 0.0622 | 0.0973 | –
[2], x2 = 0.0737 | 0.114 | –
[2], x2 = 0.0849 | 0.129 | –
[2], x2 = 0.0959 | 0.144 | –
[2], x2 = 0.1066 | 0.157 | –
[2], x2 = 0.1171 | 0.171 | –
[2], x2 = 0.1273 | 0.183 | –
[2], x2 = 0.1373 | 0.195 | –
[2], x2 = 0.147 | 0.206 | –
[2], x2 = 0.1566 | 0.216 | –
[2], x2 = 0.1659 | 0.226 | –

CCn1cc[n+](C)c1.O=S(=O)([N-]S(=O)(=O)C(F)(F)F)C(F)(F)F + CO
Details | excess molar enthalpy [kcal/mol] | mass density
[1], x1 = 0.0001 | – | 792.63 kg/m3
[1], x1 = 0.0732 | – | 1040.6 kg/m3
[1], x1 = 0.1082 | – | 1115.5 kg/m3
[1], x1 = 0.1385 | – | 1165.23 kg/m3
[1], x1 = 0.2145 | – | 1258.12 kg/m3
[1], x1 = 0.2485 | – | 1289.7 kg/m3
[1], x1 = 0.2968 | – | 1325.28 kg/m3
[1], x1 = 0.3388 | – | 1351.25 kg/m3
[1], x1 = 0.6002 | – | 1451 kg/m3
[1], x1 = 0.6355 | – | 1459.63 kg/m3
[1], x1 = 0.7925 | – | 1487.15 kg/m3
[1], x1 = 0.837 | – | 1497.28 kg/m3
[1], x1 = 1 | – | 1518.63 kg/m3 and 1518.58 kg/m3
[2], x2 = 0.0118 | 0.0158 | –
[2], x2 = 0.0233 | 0.0311 | –
[2], x2 = 0.0346 | 0.0454 | –
[2], x2 = 0.0456 | 0.0593 | –
[2], x2 = 0.0563 | 0.0722 | –
[2], x2 = 0.0668 | 0.0848 | –
[2], x2 = 0.0771 | 0.0966 | –
[2], x2 = 0.0872 | 0.108 | –
[2], x2 = 0.097 | 0.119 | –
[2], x2 = 0.1067 | 0.129 | –
[2], x2 = 0.1161 | 0.139 | –
[2], x2 = 0.1253 | 0.148 | –
[2], x2 = 0.1343 | 0.157 | –
[2], x2 = 0.1432 | 0.165 | –
[2], x2 = 0.1519 | 0.173 | –

CO [methanol] + CCCCCCCCCCn1cc[n+](C)c1.O=S(=O)([N-]S(=O)(=O)C(F)(F)F)C(F)(F)F
Details | mass density [kg/m3]
[1], x2 = 0 | 793.17

CO [methanol] + CCCCCCCCn1cc[n+](C)c1.O=S(=O)([N-]S(=O)(=O)C(F)(F)F)C(F)(F)F
Details | mass density [kg/m3]
[1], x2 = 0 | 792.64

CO [methanol] + CCCCCC[n+]1ccn(C)c1.O=S(=O)([N-]S(=O)(=O)C(F)(F)F)C(F)(F)F
Details | mass density [kg/m3]
[1], x2 = 0 | 792.66

CO [methanol] + CCCC[n+]1ccn(C)c1.O=S(=O)([N-]S(=O)(=O)C(F)(F)F)C(F)(F)F
Details | mass density [kg/m3]
[1], x2 = 0 | 792.92

CO [methanol] + CCn1cc[n+](C)c1.O=S(=O)([N-]S(=O)(=O)C(F)(F)F)C(F)(F)F
Details | mass density [kg/m3]
[1], x2 = 0 | 794.62
